Measured values from patent EP0970046B1, “N-HYDROXY-2-(ALKYL, ARYL, OR HETEROARYL SULFANYL, SULFINYL OR SULFONYL)-3-SUBSTITUTED ALKYL, ARYL OR HETEROARYLAMIDES AS MATRIX METALLOPROTEINASE INHIBITORS” (Wyeth Holdings Corporation, priority 1997, dated 1998).
Read-outs that look alike come from different tables or passages of the source.

Tests used:
Assay type in all cases: biochemical
MMP 1 = target: T1, MMP 1 (Homo sapiens, UniProt P03956); assay: In Vitro Collagenase Assay; details: human recombinant fibroblast collagenase; for IC50: read-out: MMP 1 IC 50; for inhibition at 1 µM: read-out: MMP 1 % inhibition at 1 micromolar, 1 micromolar
T1 construct: human recombinant fibroblast collagenase (truncated, mw= 18,828, WAR, Radnor)
T1 sequence (P03956 100-269 limits assumed): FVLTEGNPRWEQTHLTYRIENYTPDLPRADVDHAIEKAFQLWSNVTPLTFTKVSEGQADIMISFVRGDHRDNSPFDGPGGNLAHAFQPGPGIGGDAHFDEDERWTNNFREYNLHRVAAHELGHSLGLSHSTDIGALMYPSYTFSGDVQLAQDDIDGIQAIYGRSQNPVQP
Experimental: The assay is based on the cleavage of a peptide substrate ((Dnp-Pro-Cha-Gly-Cys(Me)-His-Ala-Lys(NMa)-NH2), Peptide International, Inc.) by collagenase releasing the fluorescent NMa group which is quantitated on the fluorometer. Dnp quenches the NMa fluorescence in the intact substrate. […] Substrate is dissolved in methanol and stored frozen in 1 mM aliquots. […] For the assay, substrate is dissolved in HCBC buffer to a final concentration of 10 µM and collagenase to a final concentration of 5 nM. Compounds are dissolved in methanol, DMSO, or HCBC. The methanol and DMSO are diluted in HCBC to < 1.0%. Compounds are added to the 96 well plate containing enzyme and the reaction is started by the addition of substrate.
The slope of the line is calculated and represents the reaction rate.
The linearity of the reaction rate is confirmed (r^2 >0.85). The mean (x ± sem) of the control rate is calculated and compared for statistical significance (p <0.05) with drug-treated rates using Dunnett's multiple comparison test.

MMP 13 = MMP 13 (Homo sapiens, UniProt P45452); assay: MMP 13 inhibition (IC50 / manual assay; method not described); details: for IC50: read-out: MMP 13 IC 50; for inhibition at 1 µM: read-out: MMP 13 % inhibition at 1 micromolar
TACE = target: T2, TACE (Homo sapiens, UniProt P78536); assay: Procedure for Measuring TACE Inhibition; details: for inhibition at 1 µM: read-out: TACE % inhibition at 1 micromolar
T2 construct: purchased Immunex
T2 sequence (P78536 215-824): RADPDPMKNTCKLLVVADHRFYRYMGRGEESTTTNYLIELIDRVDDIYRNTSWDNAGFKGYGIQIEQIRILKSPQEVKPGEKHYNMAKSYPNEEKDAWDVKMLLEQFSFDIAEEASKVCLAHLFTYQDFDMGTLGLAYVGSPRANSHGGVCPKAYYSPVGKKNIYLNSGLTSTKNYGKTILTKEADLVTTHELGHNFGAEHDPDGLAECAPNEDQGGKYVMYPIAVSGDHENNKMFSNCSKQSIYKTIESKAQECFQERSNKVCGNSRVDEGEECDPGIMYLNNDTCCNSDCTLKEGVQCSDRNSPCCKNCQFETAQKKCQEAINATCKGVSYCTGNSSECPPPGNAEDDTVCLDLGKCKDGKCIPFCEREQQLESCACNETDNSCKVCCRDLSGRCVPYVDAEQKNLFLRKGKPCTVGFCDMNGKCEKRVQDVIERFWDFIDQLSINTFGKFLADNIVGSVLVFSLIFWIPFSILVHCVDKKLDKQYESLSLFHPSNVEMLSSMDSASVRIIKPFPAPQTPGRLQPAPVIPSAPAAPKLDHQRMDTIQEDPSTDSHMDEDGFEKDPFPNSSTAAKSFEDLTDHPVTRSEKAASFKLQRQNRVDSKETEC
In short: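 Single-concentration screen: test compound at 1 µM final, 10-min room-temperature preincubation with 1 µg/mL protease in Tris pH 7.4 buffer containing glycerol. Initial rate from linear fluorescence increase (340/420 nm) over 10 min after adding 100 µM peptidyl substrate; significance versus control rate by Dunnett's test.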

MMP 9 = target: T3, MMP 9 (Homo sapiens, UniProt P14780); assay: In Vitro Gelatinase Assay; details: human neutrophil gelatinase B; for IC50: read-out: MMP 9 IC 50; for inhibition at 1 µM: read-out: MMP 9 % inhibition at 1 micromolar, 1 micromolar
T3 construct: from tissue; host or cells: human neutrophils
T3 sequence (P14780 94-707): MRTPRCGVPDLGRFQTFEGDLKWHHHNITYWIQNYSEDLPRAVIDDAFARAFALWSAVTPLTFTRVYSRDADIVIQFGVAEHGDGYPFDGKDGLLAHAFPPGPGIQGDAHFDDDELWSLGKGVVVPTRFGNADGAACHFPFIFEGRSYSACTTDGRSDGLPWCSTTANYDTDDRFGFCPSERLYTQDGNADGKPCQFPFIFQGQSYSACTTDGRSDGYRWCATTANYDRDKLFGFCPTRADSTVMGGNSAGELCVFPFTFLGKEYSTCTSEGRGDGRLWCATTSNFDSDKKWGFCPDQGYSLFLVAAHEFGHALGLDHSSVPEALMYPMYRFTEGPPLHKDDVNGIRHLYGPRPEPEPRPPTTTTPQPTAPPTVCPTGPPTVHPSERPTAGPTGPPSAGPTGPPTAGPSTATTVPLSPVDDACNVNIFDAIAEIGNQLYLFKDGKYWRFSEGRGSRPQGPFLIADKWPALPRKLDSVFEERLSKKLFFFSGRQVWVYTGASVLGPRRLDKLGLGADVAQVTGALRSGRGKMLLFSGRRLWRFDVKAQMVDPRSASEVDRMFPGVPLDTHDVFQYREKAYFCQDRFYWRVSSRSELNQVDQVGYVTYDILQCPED
Experimental: The assay is based on the cleavage of the thiopeptide substrate ((Ac-Pro-Leu-Gly(2 mercapto-4 methyl-pentanoyl)-Leu-Gly-OEt), Bachem Bioscience) by the enzyme, gelatinase, releasing the substrate product which reacts colorimetrically with DTNB ((5,5'-dithio-bis(2-nitro-benzoic acid)). The enzyme activity is measured by the rate of the color increase. The thiopeptide substrate is made up fresh as a 20 mM stock in 100% DMSO and the DTNB is dissolved in 100% DMSO as a 100 mM stock and stored in dark at room temperature. Both the substrate and DTNB are diluted together to 1 mM with substrate buffer (50 mM HEPES pH 7.5, 5 mM CaCl2) before use. […] The increase in OD405 is plotted and the slope of the line is calculated which represents the reaction rate. The linearity of the reaction rate is confirmed (r^2 >0.85). The mean (x ± sem) of the control rate is calculated and compared for statistical significance (p <0.05) with drug-treated rates using Dunnett's multiple comparison test.

Row | SMILES | IC50 (MMP 1) [nM] | IC50 (MMP 13) [nM] | IC50 (MMP 9) [nM] | further results
1 | COc1ccc(S(=O)(=O)C(C)(CCCCN2C(=O)c3ccccc3C2=O)C(=O)NO)cc1 (stereo not drawn) [Example 31, 6-(1,3-Dioxo-1,3-dihydro-isoindol-2-yl)-2-(4-methoxy-benzenesulfonyl)-2-methyl - hexanoic acid hydroxyamide] | 162 | 5.7 | 15.2 | IC50 (TACE; read-out: TACE IC 50): 688 nM
2 | COc1ccc(SC(C)(CC=C(C)C)C(=O)NO)cc1 (stereo not drawn) [Example 3, 2-(4-Methoxy-phenylsulfanyl)-2,5-dimethyl-hex-4-enoic acid hydroxyamide] | – | 169 | 309 | inhibition at 1 µM (TACE): 27.4%
3 | COc1ccc(SC(C)(Cc2ccccc2)C(=O)NO)cc1 (stereo not drawn) [Example 1, N-Hydroxy-2-(4-methoxy-phenylsulfanyl)-2-methyl-3-phenyl-propionamide] | – | 193 | 560 | inhibition at 1 µM (TACE): 31.6%
4 | CCCCCCC(Sc1ccc(OC)cc1)C(=O)NO (stereo not drawn) [Example 37, 2-(4-Methoxy-benzenesulfanyl)-octanoic acid hydroxyamide] | – | – | – | inhibition at 1 µM (MMP 1): 9%; inhibition at 1 µM (MMP 13): 14.3%; inhibition at 1 µM (MMP 9): 31.6%
5 | CC(C(=O)O)S(=O)(=O)CCCCCCCCS(=O)(=O)C(C)C(=O)NO (stereo not drawn) [Example 49, 2-[8-(1-carboxy-ethanesulfonyl)-octane-1-sulfonyl]-propionic acid hydroxyamide] | – | – | – | inhibition at 1 µM (MMP 1): 10.1%; inhibition at 1 µM (MMP 13): 54.6%; inhibition at 1 µM (MMP 9): 23.7%
6 | CCCCCCC(Sc1nccn1C)C(=O)NO (stereo not drawn) [Example 39, 2-(1-methyl-1H-imidazol-2-ylsulfanyl)-octanoic acid hydroxyamide] | – | – | – | inhibition at 1 µM (MMP 1): 29.4%; inhibition at 1 µM (MMP 13): 26.6%; inhibition at 1 µM (MMP 9): 35.2%
7 | CCCCC(Cc1ccc(OCCN(CC)CC)cc1)(C(=O)NO)S(=O)(=O)c1ccc(OC)cc1 (stereo not drawn) [Example 27, 2-[4-(2-Diethylamino-ethoxy)-benzyl]-2-(4-methoxy-benzenesulfonyl)-hexanoic acid hydroxyamide] | 629 | 30.1 | 106 | –
8 | COc1ccc([S+]([O-])C(C)(Cc2ccccc2)C(=O)NO)cc1 (stereo not drawn) [Example 5, N-Hydroxy-2-(4-methoxy-benzenesulfinyl)-2-methyl-3-phenyl-propionamide] | – | 4.7 | 7.7 | inhibition at 1 µM (TACE): 25%
9 | COc1ccc(S(=O)(=O)C(C/C=C(\C)CCC=C(C)C)(Cc2ccc(OCCN3CCOCC3)cc2)C(=O)NO)cc1 (stereo not drawn) [Example 26, (4E)-2-(4-Methoxy-benzenesulfonyl)-5,9-dimethyl-2-[4-(2-morpholin-4-yl-ethoxy) - benzyl]-deca-4,8-dienoic acid hydroxyamide] | 305 | 3.2 | 6.3 | –
10 | CCCCOc1ccc(S(=O)(=O)C(C)(Cc2ccc(OCCN3CCCCC3)cc2)C(=O)NO)cc1 (stereo not drawn) [Example 28, N-Hydroxy-2-(4-n-butoxy-benzenesulfonyl)-2-methyl-3-[4-(2-piperidin-1-yl-ethoxy)-phenyl]-propionamide] | – | 2 | – | inhibition at 1 µM (TACE): 30.6%
11 | COc1ccc(SC(C(=O)NO)c2ccccc2)cc1 (stereo not drawn) [Example 2, N-Hydroxy-2-(4-methoxy-phenylsulfanyl)-2-phenyl-acetamide] | – | – | – | inhibition at 1 µM (MMP 13): 0%; IC50 (TACE; read-out: TACE IC 50): 403 nM; inhibition at 1 µM (MMP 9): 10.5%
12 | COc1ccc(S(=O)(=O)C(CC=C(C)C)(Cc2ccc(OCCN3CCOCC3)cc2)C(=O)NO)cc1 (stereo not drawn) [Example 24, 2-(4-Methoxy-benzenesulfonyl)-5-methyl-2-[4-(2-morpholin-4-yl-ethoxy)-benzyl]-hex-4-enoic acid hydroxyamide] | 413 | 31.3 | 20.9 | –
13 | CCOc1ccc(S(=O)(=O)C(C)(Cc2ccc(OCCN(CC)CC)cc2)C(=O)NO)cc1 (stereo not drawn) [Example 25, N-Hydroxy-2-(4-ethoxy-benzenesulfonyl)-2-methyl-3-[4-(2-N,N-diethylamino-ethoxy)-phenyl]-propionamide] | – | 8 | 26.7 | –

Second part, led by results:

Row | IC50 (MMP 1) [nM] | IC50 (MMP 13) [nM] | IC50 (MMP 9) [nM] | SMILES | further results
14 | 110 | 21 | 66 | COc1ccc(S(=O)(=O)C2(C(=O)NO)CCCC2)cc1 [Example 54, 1-(4-Methoxy-benzenesulfonyl)-cyclopentanecarboxylic acid hydroxyamide] | inhibition at 1 µM (TACE): 55.1%
15 | 4440 | 33.8 | 374 | COc1ccc(S(=O)(=O)C2(C(=O)NO)CCN(C(C)C)CC2)cc1 [Example 96, 1-Isopropyl-4-(4-methoxy-benzenesulfonyl)-piperidine-4-carboxylic acid hydroxyamide] | –
16 | 2040 | 43.9 | 231 | CCCCC[C@H](C(=O)NO)[S@+]([O-])c1ccc(OC)cc1 (stereo in doubt) [Example 81a, 2R*-(4-methoxy-phenyl-S*- sulfinyl)-heptanoic acid hydroxyamide] | –
17 | 575 | 90 | – | COc1ccc(S(=O)(=O)C(CCC(C)C)(Cc2cccnc2)C(=O)NO)cc1 (stereo not drawn) [Example 69, 2-(4-Methoxy-benzenesulfonyl)-5-methyl-2-pyridin-3-ylmethyl-hexanoic acid hydroxyamide] | inhibition at 1 µM (TACE): 41.3%
18 | 456 | 48.2 | 234 | CCCC(Cc1ccc(OCCN2CCOCC2)cc1)(C(=O)NO)S(=O)(=O)c1ccc(OC)cc1 (stereo not drawn) [Example 35, 2-(4-Methoxy-benzenesulfonyl)-2-[4-(2-morpholin-4-yl-ethoxy)-benzyl]-pentanoic acid hydroxyamide] | –
19 | 13.7 | 1 | 3.7 | CCN(CC)CCOc1ccc(CC(C)(C(=O)NO)S(=O)(=O)c2ccc(-c3ccco3)cc2)cc1 (stereo not drawn) [Example 32, 3-[4-(2-Diethylamino-ethoxy)-phenyl]-2-(4-furan-2-yl-benzenesulfonyl)-N-hydroxy-2-methyl-propionamide] | –
20 | – | 27 | 29 | COc1ccc(S(=O)(=O)C(CCCCOc2ccccc2)(Cc2cccnc2)C(=O)NO)cc1 (stereo not drawn) [Example 68, 2-(4-Methoxy-benzenesulfonyl)-6-phenoxy-2-pyridin-3-ylmethyl-hexanoic acid hydroxyamide] | IC50 (TACE; read-out: TACE IC 50): 522 nM
21 | – | 8.8 | 45.1 | COc1ccc(S(=O)(=O)C2(C(=O)NO)CCN(CCc3ccccc3)CC2)cc1 [Example 103, 4-(4-methoxy-benzenesulfonyl)-1-(2-phenyl-ethyl)-piperidine-4-carboxylic acid hydroxyamide] | IC50 (TACE): 470 nM
22 | 805 | 500 | – | CC#CCC(Cc1cccnc1)(C(=O)NO)S(=O)(=O)c1ccc(F)cc1 (stereo not drawn) [Example 76, 2-(4-Fluoro-benzenesulfonyl)-2-pyridin-3-ylmethyl-hex-4-ynoic acid hydroxyamide] | –
23 | – | 6.2 | 50.9 | CC(C)=CCC(CC=C(C)C)(C(=O)NO)S(=O)(=O)c1ccc(C)cc1 [Example 42, 5-Methyl-2-(3-methyl-but-2-enyl)-2-(toluene-4-sulfonyl)-hex-4-enoic acid hydroxyamide] | –
24 | – | 34 | 560 | CC#CCC(CC#CC)(C(=O)NO)S(=O)(=O)c1ccc(F)cc1 [Example 78, 2-(4-Fluoro-benzenesulfonyl)-2-but-2-ynyl-hex-4-ynoic acid hydroxyamide] | inhibition at 1 µM (TACE): 24.6%
25 | – | 148 | 649 | COc1ccc(S(=O)(=O)C2(C(=O)NO)CCN(C(C)(C)C)CC2)cc1 [Example 92, 1-Tert-butyl-4-(4-methoxy-benzenesulfonyl)-piperidine-4-carboxylic acid hydroxyamide] | inhibition at 1 µM (MMP 1): 59.6%
26 | 206 | 170 | – | CCCCCC#CCC(Cc1cccnc1)(C(=O)NO)S(=O)(=O)c1ccc(F)cc1 (stereo not drawn) [Example 77, 2-(4-Fluoro-benzenesulfonyl)-2-pyridin-3-ylmethyl-dec-4-ynoic acid hydroxyamide] | –
